“Also recorded” adds a separate entry of the source.
Assays:
[1] = tested on: wild-type obese human patients; assay: Weight loss in wild-type obese human patients; type: in vivo; conditions: 0.01 mg/kg or 0.015 mg/kg twice daily (BID); after 2 or 4 weeks; placebo-subtracted
Procedure: The effect of MC4R agonist setmelanotide on wild-type obese human patients was assessed. The patients were treated with placebo or setmelanotide twice daily (BID) at 0.01 mg/kg or 0.015 mg/kg. There were 9 patients in each treatment group (6 with setmelanotide and 3 with placebo).
The amount of weight loss was determined after 2 weeks or after 4 weeks of treatment. […] The weight loss among the wild-type obese patients was about 0.6 to about 0.9 kg per week.

[2] = tested on: wild-type mice; assay: Food intake over four hours in wild-type mice; type: in vivo
Procedure: (§1) To determine this, wild-type and db/db mice were exposed to vehicle or varying concentrations of setmelanotide (0.0554 mpk; 0.137 mpk, 0.344 mpk, or 1.37 mpk), and their food intake was measured over four hours.

[3] = tested on: POMC deficient patient; assay: Phase 2 open label study of setmelanotide in an adult POMC deficient patient with severe obesity and hyperphagia; type: in vivo, human
Procedure: See, e.g., Chen et al. J. Clin. Endocrinol. Metab. 2015; 100:1639-45. The study was an investigator initiated, open label, phase 2, non-randomized proof of concept study (EudraCT No. 2014-002392-28; Clinical Trials Identifier No. NCT02507492) with three parts: pre-study evaluation, main study (about 13 weeks) and after a short interval off drug, a long-term extension phase.
In the pre-study period, baseline examinations were performed, including analysis of metabolic parameters, including OGTT, GnRH test, fasting blood glucose, Leptin measurements as well as bioelectrical impedance analysis (BIA, according standard protocols; Data-in, Nutriguard-MS), indirect calorimetry (CareFusion, VMAX® Encore system), heart rate and blood pressure monitoring (after the first injection and after each dosage escalation blood pressure was measured regularly over 12 hours; in addition, blood was measured at home 3 times daily) as well as a dermatological and psychological examination. All parameters were in the normal range with the exception of elevated fasting insulin reflecting insulin resistance. These measurements were repeated after 13 and 26 weeks of treatment. Baseline examination also included physical examination, e.g., measurement of height and body-weight. Setmelanotide treatment was started at a dose of 0.25 mg subcutaneously (s.c.) once daily. The dose escalated every 1-2 weeks after careful assessment of safety and weight loss. After the first injection and after each dosage escalation, blood pressure was measured regularly over 12 hours. In addition, blood was measured 3 times daily. Setmelanotide injections were given once a day.
After about 90 days of treatment (main study), assessments were repeated, including assessments of metabolic parameters, e.g., blood tests, skin examination, and psychological evaluation. Setmelanotide treatment was ended, and a rapid and large weight gain off-treatment was observed. Subsequently, setmelanotide treatment was continued for another 3 months (extension phase) along with continued assessments (of metabolic parameters). The hunger score was evaluated using a Likert hunger scale from 0 to 10 points (0=no hunger; 10=severe hunger). See, e.g., Sibilia. Psychologicol Topics 19 (2010), 2, 341-354.
Bioelectric Impedance Analysis (BIA) and indirect calorimetric analysis was performed according standard protocols, e.g., as described in Barak et al. JPEN J. Parenter. Enteral Nutr. 27.1(2003):43-6; and Compher et al. J. Am. Diet Assoc.
Statistical analysis: The values of systolic and diastolic blood pressure and heart rate were analyzed with a […].

[4] = cited from earlier work
[5] = tested on: Magel2-null mice; assay: Food intake and energy expenditure in Magel2-null mice (mouse model of PWS); type: in vivo
Procedure: (§2) Experiments were performed to determine the effect of a MC4R agonist, setmelanotide, on Magel2-null mice. Setmelanotide was evaluated in wild type and Magel2-null mice. Adult mice (N=6 per group) were acclimated to metabolic chambers, and food intake and energy expenditure (kcal/h) were measured over time. Mice were 8 weeks old. […] Vehicle and drug (setmelanotide) were administered intraperitoneally (i.p.) (n=6 for each treatment). A 0.1 mg/kg dose of setmelanotide was injected i.p. before the start of the dark cycle in the mice.
(§3) Food intake (cumulative in grams (g)) through 3 hours post dose and overnight cumulative food intake were assessed. Energy expenditure was also measured after dosing. Post-setmelanotide treatment data were compared to the data from post-vehicle injections in the same groups of mice. Statistical analysis was by two-way ANOVA followed by Bonferroni post-testing.

[6] = tested on: wildtype mice; assay: Food intake in wild type mice (comparison to Magel2-null); type: in vivo; conditions: 0.1 mg/kg i.p.
Procedure: as §2, §3

[7] = tested on: db/db mice; assay: Food intake over four hours in db/db mice (leptin receptor deficient); type: in vivo
Procedure: as §1

[8] = higher doses (0.137 mpk, 0.344 mpk, and 1.37 mpk), vs vehicle-treated mice
[9] = after 26 weeks of treatment, listed as MC4R agonist
[10] = after a 13-week treatment vs baseline
[11] = bioelectrical impedance analysis
[12] = off drug after 13 weeks of treatment (three weeks off drug)

Which results are given for `CC(=O)N[C@@H](CCCNC(=N)N)C(=O)N[C@H]1CSSC[C@@H](C(N)=O)NC(=O)[C@H](Cc2c[nH]c3ccccc23)NC(=O)[C@H](CCCNC(=N)N)NC(=O)[C@@H](Cc2ccccc2)NC(=O)[C@H](Cc2cnc[nH]2)NC(=O)[C@@H](C)NC1=O` [setmelanotide, Ac-Arg-c(Cys-D-Ala-His-D-Phe-Arg-Trp-Cys)-NH2]?
weight loss [1]: 0.6-0.9 kg per week; food intake vs vehicle treated mice ([2]; 0.0544 mpk dose, 4 hour timepoint): identical food intake; food intake ([2]; 0.0544 mpk dose, at 1 and 2 hours): Decreased food intake; food intake [2, 8]: significantly decreased food intake; Likert hunger scale score ([3]; 1 mg s.c. once daily, scale 0 to 10 (0=no hunger), baseline 9): 5 points; rate of weight loss ([3]; 1.5 mg dose, first treatment phase): 2-3 kg per week; LDL ([3]; after 26 weeks of treatment): further reduced; total cholesterol ([3]; after 26 weeks of treatment): further reduced; total loss of body weight ([3]; after 26 weeks of treatment): 35.9 kg; total loss of body weight, % of initial body weight ([3]; after 26 weeks of treatment): 23.2%; triglycerides ([3]; after 26 weeks of treatment): further reduced; total loss of body weight [3, 9]: about 36 kg; total loss of body weight, % of initial body weight [3, 9]: about 23%; HDL cholesterol [3, 10]: did not change; LDL cholesterol [3, 10]: reduced; total cholesterol [3, 10]: reduced; triglycerides [3, 10]: did not change; total weight loss, % of initial body weight ([3]; after the first 13 weeks of treatment): 16.7%; total weight loss ([3]; after the first 13 weeks of treatment, baseline 155 kg): 25.8 kg; BMI ([3]; after the first 13 weeks, baseline 49.8): 41.5 kg/m2; end body weight ([3]; after the first 13 weeks, baseline 155 kg): 129.2 kg; BMI SDS ([3]; after the first 13 weeks, baseline +4.52): +3.86; quality of life ([3]; after the initiation of treatment): improved dramatically; loss of body weight ([3]; at 86 weeks of treatment): 60.5 kg; composition of the reduction of body weight [3, 11]: mainly due to a loss of body-fat mass; lean body mass [3, 11]: not greatly altered; resting energy expenditure (REE)/kg lean body mass ([3]; despite severe weight loss): stayed relatively stable; blood pressure ([3]; during all steps of dose escalation): no increase; diastolic BP ([3]; during the study): significant decreases; heart rate (HR) ([3]; during the study): significant decreases; systolic BP ([3]; during the study): significant decreases; adverse event reported by the patient ([3]; human, in vivo): infrequent dry mouth; safety laboratories ([3]; human, in vivo): no changes in safety laboratories of clinical concern; tolerability of treatment ([3]; human, in vivo): well tolerated; changes in hunger ([3]; initially, with low dosage): only little changes; weight loss ([3]; initially, with low dosage): moderate; Likert hunger score after treatment was stopped [3, 12]: 7 points; weight regained after treatment was stopped [3, 12]: 4.8 kg; blood glucose values (fasting and after glucose challenge) ([3]; oral glucose tolerance test, during the study): remained always in the normal range; also recorded: relatively stable; weight loss per week ([3]; overall, over the course of 26 weeks of treatment): 2-2.5 kg per week; rate of weight loss ([3]; second treatment phase (1 mg for 4 weeks and 1.5 mg thereafter)): 1-2 kg per week; elevated insulin levels / insulin resistance (insulin sensitivity) ([3]; under setmelanotide treatment): improved significantly; serum leptin concentrations ([3]; with loss of body-fat mass): significant decrease; effect on blood pressure ([4]; clinical trials (Chen et al. 2015)): not been shown to adversely affect blood pressure; effects on sexual activity ([4]; in vivo): only infrequent; signs of increased blood pressure ([4]; in vivo): little, if any; tolerability ([4]; in vivo): generally well-tolerated; increase of energy expenditure ([5]; 0.1 mg/kg i.p., 3 hours post-dosing, vs vehicle-dosed Magel2-null mice): 11%; decrease of spontaneous food intake ([5]; 0.1 mg/kg i.p., over the first 3 hours, P<0.05): ~75%; food intake suppression, duration ([5]; 0.1 mg/kg i.p., overnight): persisted throughout the dark cycle; cumulative food intake ([5]; 0.1 mg/kg, P<0.05): statistically significant decrease; sensitivity compared with wildtype mice ([5]; 0.1 mg/kg, food intake): much more sensitive than wildtype mice; food intake [6]: retained normal levels of food intake; suppression of food intake ([7]; 0.0544 mpk dose, end of the 4 hour time period): about 80%; suppression of food intake compared with wildtype mice ([7]; all concentrations): more profound suppression of foodintake than wildtype mice; food intake [7, 8]: significantly decreased food intake
